Measured values as given in patent publication US12378277B2, “SGLTS/DPP4 inhibitor and application thereof” (DONGBAO PURPLE STAR (HANGZHOU) BIOPHARMACEUTICAL CO., LTD., priority 2019, dated 2025).
Marks after values point to notes of the source that are not given here.

Assays:
[1] = molecular target: Human-SGLT2 (Homo sapiens (Human), UniProt P31639); assay: SGLT2 glucose transport test; assay type: cell-based; conditions: cells stably expressing Human-SGLT2; [14C]-labeled methyl α-D-glucopyranoside uptake, 37° C., 2 hours
Chain of Human-SGLT2 (P31639 whole entry): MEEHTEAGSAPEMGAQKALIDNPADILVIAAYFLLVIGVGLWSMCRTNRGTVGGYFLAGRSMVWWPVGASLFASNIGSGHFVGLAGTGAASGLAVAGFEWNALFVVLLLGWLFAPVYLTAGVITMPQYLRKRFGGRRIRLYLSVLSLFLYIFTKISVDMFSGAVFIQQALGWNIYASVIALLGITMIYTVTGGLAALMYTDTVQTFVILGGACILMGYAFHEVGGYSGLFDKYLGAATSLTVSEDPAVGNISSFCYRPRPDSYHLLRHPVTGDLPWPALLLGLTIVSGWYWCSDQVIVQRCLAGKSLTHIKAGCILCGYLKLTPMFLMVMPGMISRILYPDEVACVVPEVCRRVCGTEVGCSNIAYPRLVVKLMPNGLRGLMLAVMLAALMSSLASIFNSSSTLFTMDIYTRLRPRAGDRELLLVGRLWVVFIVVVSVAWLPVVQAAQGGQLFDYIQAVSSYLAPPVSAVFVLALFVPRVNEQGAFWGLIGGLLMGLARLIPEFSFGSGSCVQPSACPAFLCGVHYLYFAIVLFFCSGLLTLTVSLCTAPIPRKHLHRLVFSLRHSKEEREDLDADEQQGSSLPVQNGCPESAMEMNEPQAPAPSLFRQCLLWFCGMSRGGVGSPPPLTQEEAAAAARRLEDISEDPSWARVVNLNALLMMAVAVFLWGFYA
Method: 6) The data was calculated by GraphPad Prism 5.0 software: log(inhibitor) vs. response—Variable slope to obtain the IC50 value of the test compound. The experimental results were shown in Table 3. • Biological activity experiment 2: SGLT2 glucose transport test 1. Experimental Purpose:
The effect of the compound on the glucose transport activity of the SGLT2 transporter was detected through measuring the amount of [^14C]-labeled glucose entering the cells with high expression of Human-SGLT2.
The cells stably expressing Human-SGLT2 used in the experiment were constructed by Shanghai WuXi AppTec. The SGLT2 cells were plated on a 96-well cell culture plate (Greiner) and cultured overnight at 5% CO2 at 37° C.
2.2. SGLT2 Glucose Transport Test
1) Experimental buffer: 10 mM 4-hydroxyethylpiperazine ethanesulfonic acid (HEPES), 1.2 mM magnesium chloride (MgCl2), 4.7 mM potassium chloride (KCl), 2.2 mM calcium chloride (CaCl2)) and 120 mM sodium chloride (NaCl).
2) Termination buffer: 10 mM 4-hydroxyethylpiperazine ethanesulfonic acid (HEPES), 1.2 mM magnesium chloride (MgCl2), 4.7 mM potassium chloride (KCl), 2.2 mM calcium chloride (CaCl2), 120 mM sodium chloride (NaCl) and 1 μM LX4211.
3) The compound was diluted with 100% dimethyl sulfoxide (DMSO) with a starting concentration of 10 μM and 8 points of 5-fold serial dilution.
4) 6 μM [^14C]-labeled methyl α-D-glucopyranoside was prepared with experimental buffer.
5) The cells were treated with 49 μL of experimental buffer, 1 μL of gradient diluted compound, and 50 μL of 6 μM [^14C]isotope-labeled sugar solution at 37° C. for 2 hours.
6) The liquid in the well was aspirated and the cells were rinsed 3 times with termination buffer.
7) The cells were lysed with 50 μL of 10% sodium hydroxide solution, the cell lysate was aspirated into the scintillation tube, and 2 mL of scintillation fluid was added.
8) An isotope detector (Tricarb) was used to read.
9) The data was calculated by GraphPad Prism 5.0 software: log(inhibitor) vs. response—Variable slope to obtain the IC50 value of the test compound. The experimental results were shown in Table 3. • Biological activity experiment 3: rhDPP4 inhibitor screening experiment 1.

[2] = molecular target: recombinant human dipeptidyl peptidase 4 (rhDPP4) (Homo sapiens (Human), UniProt P27487); assay: rhDPP4 inhibitor screening experiment; assay type: biochemical; conditions: Gly-Pro-aminoluciferin substrate, luminescence, room temperature 1 hour
Chain of recombinant human dipeptidyl peptidase 4 (rhDPP4) (P27487 whole entry): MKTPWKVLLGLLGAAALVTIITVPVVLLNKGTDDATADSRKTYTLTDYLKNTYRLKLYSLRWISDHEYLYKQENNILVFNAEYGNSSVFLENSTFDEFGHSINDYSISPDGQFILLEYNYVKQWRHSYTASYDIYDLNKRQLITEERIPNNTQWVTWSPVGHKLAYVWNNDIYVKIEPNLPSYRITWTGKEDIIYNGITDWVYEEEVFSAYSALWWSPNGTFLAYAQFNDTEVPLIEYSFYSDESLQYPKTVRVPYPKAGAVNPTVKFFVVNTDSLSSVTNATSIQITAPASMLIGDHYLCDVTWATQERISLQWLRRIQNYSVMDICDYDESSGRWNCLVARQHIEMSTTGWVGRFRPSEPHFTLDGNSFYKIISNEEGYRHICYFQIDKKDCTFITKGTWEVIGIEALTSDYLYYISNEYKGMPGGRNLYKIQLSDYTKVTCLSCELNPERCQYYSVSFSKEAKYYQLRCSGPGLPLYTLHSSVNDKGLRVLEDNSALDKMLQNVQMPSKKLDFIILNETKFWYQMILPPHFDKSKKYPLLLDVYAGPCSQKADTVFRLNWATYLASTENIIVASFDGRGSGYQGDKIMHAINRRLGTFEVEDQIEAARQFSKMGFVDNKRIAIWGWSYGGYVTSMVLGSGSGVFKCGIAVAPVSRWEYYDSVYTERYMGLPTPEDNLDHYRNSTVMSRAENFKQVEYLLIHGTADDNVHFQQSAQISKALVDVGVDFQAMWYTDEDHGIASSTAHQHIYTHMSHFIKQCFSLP
Method: 9) The data was calculated by GraphPad Prism 5.0 software: log(inhibitor) vs. response—Variable slope to obtain the IC50 value of the test compound. The experimental results were shown in Table 3. • Biological activity experiment 3: rhDPP4 inhibitor screening experiment 1. Experimental Purpose:
The inhibitory activity of the compounds on recombinant human dipeptidyl peptidase 4 (rhDPP4) was evaluated by measuring the median inhibitory concentration (IC50) value of the compounds. In this experiment, rhDPP4 was used to catalyze a substrate to produce luciferin, and reacted with luciferase to produce light signals, wherein the substrate is the luminescent precursor glycine-proline-[…] (Gly-Pro-aminoluciferin). The intensity of the light signal is directly proportional to the enzyme activity.
1) 250 nL of gradient diluted compound (4 times dilution, 10 detection concentrations) was transferred to a 384-well plate (PerkingElmer-6007299) using a non-contact nano-upgraded acoustic pipetting system (ECHO). The concentration of dimethylsulfoxide (DMSO) concentration was 0.5% in the final reaction system. Blank control wells (containing DMSO, substrate and 10 mM of tris(hydroxymethyl)aminomethane hydrochlorid (Tris-HCl)) and positive control wells (containing DMSO, substrate and rhDPP4) were set.
2) The pre-packed frozen buffer containing luciferase was taken out and restored to room temperature, and then added with substrate to prepare a working solution with a substrate concentration of 20 μM. The rhDPP4 was prepared as a 0.2 ng/mL working solution with 10 mM Tris-HCl (pH8.0) aqueous solution.
3) 25 μL of working solution containing 20 μM substrate and 25 μL of working solution containing 0.2 ng/mL rhDPP4 were added to the 384-well plate with the compound added already. The plate was centrifuged at 1000 rpm for 30 s. The plate was sealed with aluminum foil sealing film and incubated at room temperature for 1 hour.
4) The light signal intensity was detected with a multi-function enzyme label detector EnVision. […]

[3] = molecular target: Human-SGLT1 (Homo sapiens (Human), UniProt P13866); assay: SGLT1 glucose transport test; assay type: cell-based; conditions: cells stably expressing Human-SGLT1; [14C]-labeled methyl α-D-glucopyranoside uptake, 37° C., 2 hours
Chain of Human-SGLT1 (P13866 whole entry): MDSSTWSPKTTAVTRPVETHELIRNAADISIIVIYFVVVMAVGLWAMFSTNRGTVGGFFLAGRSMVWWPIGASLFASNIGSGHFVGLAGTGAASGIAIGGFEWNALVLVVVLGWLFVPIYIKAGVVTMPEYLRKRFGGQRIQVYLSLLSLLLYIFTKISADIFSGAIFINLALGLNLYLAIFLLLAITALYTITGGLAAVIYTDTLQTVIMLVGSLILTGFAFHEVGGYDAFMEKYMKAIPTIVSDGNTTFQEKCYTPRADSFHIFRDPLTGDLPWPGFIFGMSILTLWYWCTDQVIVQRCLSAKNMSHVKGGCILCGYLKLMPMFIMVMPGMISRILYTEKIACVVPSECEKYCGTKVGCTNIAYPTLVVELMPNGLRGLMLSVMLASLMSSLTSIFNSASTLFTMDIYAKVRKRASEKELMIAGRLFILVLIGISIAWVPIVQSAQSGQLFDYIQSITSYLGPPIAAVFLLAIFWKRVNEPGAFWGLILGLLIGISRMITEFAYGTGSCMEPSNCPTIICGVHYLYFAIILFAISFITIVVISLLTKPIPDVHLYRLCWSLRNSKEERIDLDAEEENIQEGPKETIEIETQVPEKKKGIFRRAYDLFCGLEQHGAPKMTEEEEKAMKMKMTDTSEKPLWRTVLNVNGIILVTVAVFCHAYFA
Method: • Biological activity experiment 1: SGLT1 glucose transport test 1. Experimental Purpose:
The effect of the compound on the glucose transport activity of the SGLT1 transporter was detected through measuring the amount of [^14C]-labeled glucose entering the cells with high expression of Human-SGLT1.
The cells stably expressing Human-SGLT1 used in the experiment were constructed by Shanghai WuXi AppTec. The SGLT1 cells were plated on a Cytostar-T (PerkinElmer) 96-well cell culture plate, and cultured overnight at 5% CO2 at 37° C.
2.2. SGLT1 Glucose Transport Test
1) Experimental buffer: 10 mM 4-hydroxyethylpiperazine ethanesulfonic acid (HEPES), 1.2 mM magnesium chloride (MgCl2), 4.7 mM potassium chloride (KCl), 2.2 mM calcium chloride (CaCl2) and 120 mM sodium chloride (NaCl).
2) The compound was diluted with 100% dimethyl sulfoxide (DMSO) with 1 mM as the starting concentration and 8 points of 5-fold serial dilutions.
3) 3 μM [^14C]-labeled methyl α-D-glucopyranoside was prepared with experimental buffer.
4) The cells were treated with 49 μL of experimental buffer, 1 μL of the compound which was gradient diluted, and 50 μL of 3 μM [^14C] isotope-labeled sugar solution at 37° C. for 2 hours.
5) The isotope detector (Micro beta Reader) was used to read.
6) The data was calculated by GraphPad Prism 5.0 software: log(inhibitor) vs. response—Variable slope to obtain the IC50 value of the test compound. The experimental results were shown in Table 3. • Biological activity experiment 2: SGLT2 glucose transport test 1.

[4] = test system: SD rat; assay: Rat oral glucose tolerance test (OGTT) in vivo; conditions: 10 mg/kg single gavage
Method: 1. Animal: [table] 2. Experiment Grouping: [table] Experiment Process: 1. Animal Adaptation and Preparation: The experimental animals needed to be acclimatized in the animal room for 1 week after arriving at the facility. 2. Fasting and Administration The animals were fasted for 18 h in the metabolic cage, and drugs or solvents (2 mL/kg) were given according to the above table, and then 50% glucose solution (2 g/kg, 4 mL/kg) was administrated immediately. 3. Urine and Blood Sugar Test Two hours after the animals were given sugar, they resumed eating. The time points of 0 min, 15 min, 30 min, 45 min, 60 min and 120 min were collected for blood glucose determination; urine during 0-24 h was used for urine sugar (mg/200 g) and urine volume test respectively. 4. Data Analysis: All values will be expressed as average values. Statistical analysis was evaluated using Graphpad Prism 6 one-way analysis of variance Tukey's multiple comparison test. P value of less than 0.05 was considered of statistically significant.

| SMILES | IC50 [1] | IC50 [2] | IC50 [3] | OGTT glucose level AUC0-2 hr ([4]; then 50% glucose solution 2 g/kg, solvent control group 1079) | Urine sugar level ([4]; urine during 0-24 h, solvent control group 0.4) | Urine volume ([4]; urine during 0-24 h, solvent control group 16.8) |
| --- | --- | --- | --- | --- | --- | --- |
| CCc1ccc([C@@H]2O[C@H](SC)[C@@H](O)[C@H](O)[C@H]2O)cc1Cc1ccc(O[C@@H]2CCN([C@H]3CO[C@H](c4cc(F)ccc4F)[C@@H](N)C3)C2)c(C)c1 [WXD010] | 21.2 nM | 164 nM | 144 nM | – | – | – |
| CS[C@H]1O[C@@H](c2ccc(C(C)C)c(Cc3ccc(O[C@@H]4CCN([C@H]5CO[C@H](c6cc(F)ccc6F)[C@@H](N)C5)C4)cc3)c2)[C@H](O)[C@@H](O)[C@@H]1O [WXD012] | 6.14 nM | 317 nM | 11.2 nM | – | – | – |
| CCOc1ccc(Cc2cc([C@@H]3O[C@H](SC)[C@@H](O)[C@H](O)[C@H]3O)ccc2Cl)cc1 [Soagliflozin, Sotagliflozin] | – | – | – | 917 mmol/L/min | 2913**** mg/200 g BW | 32.2**** mL/200 g BW |

More lines, in order of falling IC50 [1], values ahead:

| IC50 [1] | IC50 [2] | IC50 [3] | SMILES | OGTT glucose level AUC0-2 hr ([4]; then 50% glucose solution 2 g/kg, solvent control group 1079) | Urine sugar level ([4]; urine during 0-24 h, solvent control group 0.4) | Urine volume ([4]; urine during 0-24 h, solvent control group 16.8) |
| --- | --- | --- | --- | --- | --- | --- |
| 10.3 nM | – | 44.9 nM | CCc1ccc([C@@H]2O[C@H](SC)[C@@H](O)[C@H](O)[C@H]2O)cc1Cc1ccc(O[C@@H]2CCN([C@H]3CO[C@H](c4cc(F)ccc4F)[C@@H](N)C3)C2)c(C)c1 [WXD011] | – | – | – |
| 1.44 nM | 511 nM | 3.37 nM | CCc1ccc([C@@H]2O[C@H](SC)[C@@H](O)[C@H](O)[C@H]2O)cc1Cc1ccc(OC2CCN(C3CO[C@H](c4cc(F)ccc4F)[C@@H](N)C3)CC2)cc1 (some centres unmarked) [WXD007] | – | – | – |
